Results published in US12655114B2, “Ionizable lipid compounds and lipid nanoparticle compositions” (SunVax mRNA Therapeutics Inc., priority 2022, dated 2026).

Legend:
[1] = tested on: 293T, C2C12 or MC38 cells; assay: SamRNA-GFP transfection efficiency of LNPs by flow cytometry; type: cell-based; details: LNP-SamRNA-GFP formulated with the lipid; FIGS. 4-6, 8-10
Description: The delivery system used to deliver the GFP-mRNA transfect are LNPs formulated using 12 individual ionizable lipids synthesized by three-component reactions. To generate the LNP encapsulated self-amplifying mRNA, the ionizable lipids of the present disclosure were dissolved in ethanol and directly added into an ethanol solution containing DOPE, cholesterol and DMG-PEG2000 at predetermined molar ratio. Self-amplifying mRNA encoding GFP sequences aqueous solution was mixed and the LNP mixture (100 ng mRNA) was added to a 96-well plate pre-seeded with MC38, C2C12 or 293T cells. The cells were incubated at 5% CO2 and 37° C. overnight. The GFP mRNA transfection efficiency was measured by flow cytometry.
E6, an ionizable lipid of the disclosure, was formulated into LNPs with 1,2-Dioleoyl-sn-glycero-3-phosphoethanolamine (DOPE), cholesterol (Chol), methoxypolyethylene glycol (DMG-PEG2000) with a mole ratio of 50/10/38.5/1.5 (ionizable lipid/DOPE/Chol/DMG-PEG2000) encapsulated self-amplifying mRNA or DNA encoding with reporter genes either green fluorescent protein (samRNA-GFP or DNA-CMV-EGFP) or firefly Luciferase (samRNA-LUC). Formulations containing 100 ng of self-amplifying mRNA were incubated to a well of 96-well plate with 60-70% confluent of HEK293, or C2C12, or MC38 cells (FIGS. 10, 23). The transfection efficiency was determined by flow cytometry for detection of GFP, or plate reader for detection of luciferase. LNP formulated using FDA approved ionizable lipid MC3 was used as a control (FIG. 10).
(§1) The LNPs containing SamRNA-GFP (or SamRNA-LUC, 100 ng/well) were added into 96-well plate which was pre-seeded with 293T, C2C12 or MC38 cells. After 24 hours incubation at 37° C. and 5% CO2, the luciferase SamRNA transfection efficiency was measured by plate reader (Perkin Elmer Envision 2104). The GFP SamRNA transfection efficiency was measured by flow cytometry (BD FACSymphony™ A5 SE Cell Analyzer).

293T cells = assay: GFP expression in 293T cells treated with LNP-SamRNA-GFP (formulation optimization, FACS); type: cell-based; details: LNPs with self-amplifying mRNA encoding GFP, FIG. 22
Description: as §1
An orthogonal experimental design was applied to optimize the formulation of synthesized ionizable lipids, DOPE, Chol and DMG-PEG2000 that encapsulated samRNA-GFP. Library A contained 16 formulations with four factors and four levels.
In Library A, the 293T cells were treated in different amounts of LNPs ([…] of SamRNA-GFP). The delivery efficiency of LNPs-SamRNA-GFP of A-6, A-9, A-10, A-13 show more than 60% GFP expression when the 293T cells were transfected with 50, 25 and 12.5 ng of mRNA (FIG. 14). The samRNA-GFP delivery efficiency increased with the molar ratios of Chol and DOPE increase, while increased the molar ratios of P6A2 and DMG-PEG2000 reduced the samRNA-GFP delivery efficiency (FIG. 15).
A second orthogonal experimental design was applied to optimize the formulation of LNPs. In Library B, the 293T cells were treated with 50 or 12.5 ng of samRNA-GFP (FIG. 16).

Compound | delivery of mRNA-GFP compared with FDA approved ionizable lipid MC3 [1] | delivery efficacies compared with FDA approved ionizable lipid MC3 (293T cells)
CCCCCCCCCCCCCCN(CCCCCCCCCCCCCC)C(c1ccc(CCCCCCCCCCCC)cc1)c1ccccc1O (centres unmarked) [TP3G11, 2-((ditetradecylamino)(4-dodecylphenyl)methyl)phenol] | more effectively deliver mRNA-GFP | 
CCCCCCCCCCCCCN(CCCCCCCCCCCCC)C(c1ccc(CCCCCCCCCCCC)cc1)c1ccccc1O (centres unmarked) [TP3F11, 2-((ditridecylamino)(4-dodecylphenyl)methyl)phenol] | more effectively deliver mRNA-GFP | 
CCCCCCCCCCCCCCN(CCCCCCCCCCCCCC)C(c1cccs1)c1ccccc1O (centres unmarked) [TP4G11, 2-((ditetradecylamino)(thiophen-2-yl)methyl)phenol] | more effectively deliver mRNA-GFP | 
CCCCCCCCCCCCC(CCCCCCCCCC)CNCCC(=O)OC1CC(OC(=O)CCNCC(CCCCCCCCCC)CCCCCCCCCCCC)CC(OC(=O)CCNCC(CCCCCCCCCC)CCCCCCCCCCCC)C1 (centres unmarked) [P7] |  | better delivery efficacies than FDA approved ionizable lipid MC3
CCCCCCCCCCCCCCN(CCCCCCCCCCCCCC)CCC(=O)OC1CC(OC(=O)CCN(CCCCCCCCCCCCCC)CCCCCCCCCCCCCC)CC(OC(=O)CCN(CCCCCCCCCCCCCC)CCCCCCCCCCCCCC)C1 (centres unmarked) [T7] |  | better delivery efficacies than FDA approved ionizable lipid MC3
